# Data published in publication PMC12396409, “Screening and hit evaluation of a microbial metabolite library against the pathogenic Plasmodium falciparum and Toxoplasma gondii parasites” (International Journal for Parasitology: Drugs and Drug …, 2025).
# Like-named read-outs stand apart in the source and are kept apart here.
# Columns and labels:
# [1] = system: P. falciparum 3D7 parasites; experiment: P. falciparum growth inhibition assay, 2-cycle (120 h treatment), delayed-death screen and dose-response; assay type: cell-based, Plasmodium falciparum; conditions: for activity at 2 µg/mL: Plasmodium falciparum
# [2] = system: T. gondii RH strain (RH-Tub-eYFP) tachyzoites; experiment: microbe, parasite or virus in culture; assay type: cell-based, Toxoplasma gondii; conditions: for percent parasite growth at 2 µg/mL: Toxoplasma gondii
# [3] = system: P. falciparum 3D7 parasites; experiment: P. falciparum growth inhibition assay, 1-cycle (72 h treatment), SYBR DNA staining (library screen at 2 μg/mL and dose-response); assay type: cell-based, Plasmodium falciparum; conditions: for activity at 2 µg/mL: Plasmodium falciparum
# [4] = P. falciparum 3D7, 120 h, parasite screen at 2 μg/mL, % growth, replicate 1
# [5] = P. falciparum 3D7, 120 h, parasite screen at 2 μg/mL, % growth, replicate 2
# [6] = T. gondii, 72 h, parasite screen at 2 μg/mL, % growth, replicate 1
# [7] = T. gondii, 72 h, parasite screen at 2 μg/mL, % growth, replicate 2
# [8] = P. falciparum 3D7, 72 h, parasite screen at 2 μg/mL, % growth, replicate 1
# [9] = P. falciparum 3D7, 72 h, parasite screen at 2 μg/mL, % growth, replicate 2
# [10] = 3D7, 120 h, P. falciparum, 120 h, screen at 2 μg/mL, replicate 1, read-out: Pf_120h_%Growth_Rep1
# [11] = 3D7, 120 h, P. falciparum, 120 h, screen at 2 μg/mL, replicate 2, read-out: Pf_120h_%Growth_Rep2
# [12] = 72 h, T. gondii, 72 h, screen at 2 μg/mL, replicate 1, read-out: Tg_72h_%Growth_Rep1
# [13] = 72 h, T. gondii, 72 h, screen at 2 μg/mL, replicate 2, read-out: Tg_72h_%Growth_Rep2
# [14] = 3D7, 72 h, P. falciparum, 72 h, screen at 2 μg/mL, replicate 1, read-out: Pf_72h_%Growth_Rep1
# [15] = 3D7, 72 h, P. falciparum, 72 h, screen at 2 μg/mL, replicate 2, read-out: Pf_72h_%Growth_Rep2
# [16] = library screen at 2 μg/mL, 72 h, % growth, replicate 1
# [17] = library screen at 2 μg/mL, 72 h, % growth, replicate 2
smiles,measurement,setting,value
COc1cc([C@H]2[C@@]3(O)C[C@H]4C[C@]2(O)[C@](O)(C(=O)O4)[C@H]3C(=O)c2ccccc2)oc(=O)c1 [Deoxyenterocin],Pf_120h_%Growth_Rep1,"[1]; P. falciparum, 120 h, screen at 2 μg/mL, replicate 1",64.95%
same,Pf_120h_%Growth_Rep2,"[1]; P. falciparum, 120 h, screen at 2 μg/mL, replicate 2",102.75%
same,Tg_72h_%Growth_Rep1,"[2]; T. gondii, 72 h, screen at 2 μg/mL, replicate 1",127.64%
same,Tg_72h_%Growth_Rep2,"[2]; T. gondii, 72 h, screen at 2 μg/mL, replicate 2",104.18%
same,Pf_72h_%Growth_Rep1,"[3]; P. falciparum, 72 h, screen at 2 μg/mL, replicate 1",87.29%
same,Pf_72h_%Growth_Rep2,"[3]; P. falciparum, 72 h, screen at 2 μg/mL, replicate 2",90.62%
C[C@H]1CCCC(=O)CCC/C=C/c2cc(O)cc(O)c2C(=O)O1 [Zearalenone],activity at 2 µg/mL,"[1]; 3D7, P. falciparum, 120 h, screen at 2 μg/mL, replicate 1, read-out: Pf_120h_%Growth_Rep1",88.9%
same,activity at 2 µg/mL,"[1]; 3D7, P. falciparum, 120 h, screen at 2 μg/mL, replicate 2, read-out: Pf_120h_%Growth_Rep2",64.3%
same,percent parasite growth at 2 µg/mL,"[2]; T. gondii, 72 h, screen at 2 μg/mL, replicate 1, read-out: Tg_72h_%Growth_Rep1",104%
same,percent parasite growth at 2 µg/mL,"[2]; T. gondii, 72 h, screen at 2 μg/mL, replicate 2, read-out: Tg_72h_%Growth_Rep2",74%
same,activity at 2 µg/mL,"[3]; 3D7, P. falciparum, 72 h, screen at 2 μg/mL, replicate 1, read-out: Pf_72h_%Growth_Rep1",89.4%
same,activity at 2 µg/mL,"[3]; 3D7, P. falciparum, 72 h, screen at 2 μg/mL, replicate 2, read-out: Pf_72h_%Growth_Rep2",99.7%
CN(C)c1ccc(O)c2c1C[C@H]1C[C@H]3[C@H](N(C)C)C(O)=C(C(N)=O)C(=O)[C@@]3(O)C(O)=C1C2=O.Cl [BIA-M1472],Pf_120h_%Growth_Rep1,[1]; [4],1.23%
same,Pf_120h_%Growth_Rep2,[1]; [5],73.75%
same,Tg_72h_%Growth_Rep1,[2]; [6],5.81%
same,Tg_72h_%Growth_Rep2,[2]; [7],37.51%
same,Pf_72h_%Growth_Rep1,[3]; [8],19.15%
same,Pf_72h_%Growth_Rep2,[3]; [9],16.74%
CO[C@H]1[C@@H](O)[C@@H](C)O[C@H](O[C@H]2[C@H](Oc3cccc4c(O)c5c(=O)oc6ccc(C)c7c(=O)oc(c34)c5c67)O[C@H](C)[C@H](O)[C@@H]2O)[C@@H]1O [Chartreusin],activity at 2 µg/mL,[1]; [10],144%
same,activity at 2 µg/mL,[1]; [11],96.8%
same,percent parasite growth at 2 µg/mL,[2]; [12],85.7%
same,percent parasite growth at 2 µg/mL,[2]; [13],97.4%
same,activity at 2 µg/mL,[3]; [14],101%
same,activity at 2 µg/mL,[3]; [15],88.7%
CO[C@@H]1[C@H](O)C[C@@H](O[C@@H]2C[C@H](Oc3cc4cc5c(c(O)c4c(O)c3C)C(=O)[C@@H](O[C@H]3C[C@@H](O[C@H]4C[C@@H](O[C@H]6C[C@](C)(O)[C@@H](OC(C)=O)[C@H](C)O6)[C@H](O)[C@@H](C)O4)[C@H](O)[C@@H](C)O3)[C@H]([C@H](OC)C(=O)[C@@H](O)[C@@H](C)O)C5)O[C@H](C)[C@@H]2OC(C)=O)O[C@@H]1C [Chromomycin A3],activity at 2 µg/mL,[1]; [10],2.76%
same,activity at 2 µg/mL,[1]; [11],-4.9%
same,percent parasite growth at 2 µg/mL,[2]; [12],1.51%
same,percent parasite growth at 2 µg/mL,[2]; [13],1.99%
same,activity at 2 µg/mL,[3]; [14],-1.98%
same,activity at 2 µg/mL,[3]; [15],0.17%
C/C=C(\C)[C@H](O)[C@H](C)/C=C(C)/C=C/C/C(C)=C/Cc1oc(OC)c(C)c(=O)c1C [Actinopyrone A],Pf_120h_%Growth_Rep1,"[1]; library screen at 2 μg/mL, 120 h, % growth, replicate 1",139.24%
same,Pf_120h_%Growth_Rep2,"[1]; library screen at 2 μg/mL, 120 h, % growth, replicate 2",89.64%
same,Tg_72h_%Growth_Rep1,[2]; [16],80.38%
same,Tg_72h_%Growth_Rep2,[2]; [17],90.86%
same,Pf_72h_%Growth_Rep1,[3]; [16],87.45%
same,Pf_72h_%Growth_Rep2,[3]; [17],86.38%
CC=CC(C)=CC(C)C(=O)CC(O)CC1CC(=O)NC(=O)C1 (centres unmarked) [BIA-M1404],Pf_120h_%Growth_Rep1,[1]; [4],85.21%
same,Pf_120h_%Growth_Rep2,[1]; [5],78.18%
same,Tg_72h_%Growth_Rep1,[2]; [6],4.29%
same,Tg_72h_%Growth_Rep2,[2]; [7],7.26%
same,Pf_72h_%Growth_Rep1,[3]; [8],71.61%
same,Pf_72h_%Growth_Rep2,[3]; [9],88.22%
CC[C@H]1CCC[C@H](O)[C@@H](C)C(=O)C2=C[C@@H]3[C@@H](C=C[C@@H]4C[C@@H](O)C[C@@H]34)[C@@H]2CC(=O)O1 [Spinosyn A aglycone],Pf_120h_%Growth_Rep1,"[1]; P. falciparum, 120 h, parasite screen 2 μg/mL, % growth, replicate 1",95.52%
same,Pf_120h_%Growth_Rep2,"[1]; P. falciparum, 120 h, parasite screen 2 μg/mL, % growth, replicate 2",13.75%
same,Tg_72h_%Growth_Rep1,"[2]; T. gondii, 72 h, parasite screen 2 μg/mL, % growth, replicate 1",107.96%
same,Tg_72h_%Growth_Rep2,"[2]; T. gondii, 72 h, parasite screen 2 μg/mL, % growth, replicate 2",78.11%
same,IC50,"[3]; 3D7, 72 h treatment, mean ± S.D., n ≥ 3, read-out: IC50 (μM), P. falciparum",> 1 µM
same,Pf_72h_%Growth_Rep1,"[3]; P. falciparum, 72 h, parasite screen 2 μg/mL, % growth, replicate 1",91.52%
same,Pf_72h_%Growth_Rep2,"[3]; P. falciparum, 72 h, parasite screen 2 μg/mL, % growth, replicate 2",38.04%
same,Screen (P. falciparum),"[3]; library screen at 2 μg/mL, 3D7, 72 h, DD from the 120 h timepoint",I
COc1cc2c(c3oc(=O)c4c(c13)CCC4=O)[C@@H]1CCO[C@@H]1O2 [Aflatoxin B2],Pf_120h_%Growth_Rep1,[1],93.01%
same,Pf_120h_%Growth_Rep2,[1],84.17%
same,Tg_72h_%Growth_Rep1,[2],112.94%
same,Tg_72h_%Growth_Rep2,[2],92.34%
same,Pf_72h_%Growth_Rep1,[3],82.21%
same,Pf_72h_%Growth_Rep2,[3],80.10%
